Test results taken from patent publication US9980927B2, “Use of tapentadol for inhibiting and/or treating depression and anxiety” (Gruenenthal GmbH, priority 2011, dated 2018).

Columns and labels:
[1] = tested on: patients with inadequately managed, severe chronic low back pain with or without a neuropathic pain component; assay: Patient Global Impression of Change (PGIC), same trial; type: in vivo, human patients
Description: (§1) This was a multicenter, multinational, open-label, effectiveness phase IIIb trial to evaluate effectiveness and safety of tapentadol prolonged release treatment in patients with inadequately managed, severe chronic low back pain with or without a neuropathic pain component. Patients taking WHO Step II analgesics discontinued those analgesics before starting study medication; patients taking Step I analgesics and/or centrally acting co-analgesics continued on the same dose. […] All patients received tapentadol prolonged release (50-250 mg bid) for up to 12 weeks (5-week titration period and a 7-week maintenance period). Tapentadol immediate release (IR) 50 mg (twice a day, hours apart) was permitted (combined total daily dose of tapentadol prolonged release and tapentadol IR, 500 mg/day). The primary efficacy endpoint was the change from Baseline to Week 6 (when tapentadol prolonged release doses were stable) in average pain intensity on the 11-point NRS-3 using the last observation carried forward (LOCF) for imputing missing scores. The painDETECT questionnaire was used to evaluate the likelihood of a neuropathic pain component of low back pain; patients were classified as painDETECT “negative,” “unclear,” or “positive.” The population of patients classified as painDETECT negative was limited to approximately 30% of the total population.
(§2) All subjects completed Short Form-36 (SF-36) and EuroQol-5 Dimension (EQ-5D) questionnaires and the Hospital Anxiety and Depression Scale (HADS). The Patient Global Impression of Change (PGIC) and Clinical global impression of change (CGIC) were also used as secondary endpoints. For both tests, patients completed the statement, “since I began trial treatment, I would rate my overall condition as,” using 7 possible responses (“very much worse” to “very much improved”). Adverse events were recorded throughout the trial.

[2] = tested on: patients with inadequately managed, severe chronic low back pain with or without a neuropathic pain component; assay: Clinical global impression of change (CGIC), same trial; type: in vivo, human patients
Description: as §1, §2

CC[C@@H](c1cccc(O)c1)[C@@H](C)CN(C)C [tapentadol, (−)-(1R,2R)-3-(3-dimethylamino-1-ethyl-2-methyl-propyl)-phenol]
percentage of patients reporting “very much improved” or “much improved” on the PGIC ([1]; Week 1 (26/172)): 15.1% | percentage of patients reporting “very much improved” or “much improved” on the PGIC ([1]; Week 6 (67/138)): 48.6% | percentage of patients reporting “very much improved” or “much improved” on the PGIC ([1]; Week 12 (61/91)): 67.1% | percentage of patients reporting “very much improved” or “much improved” on the CGIC ([2]; Week 1 (26/172)): 15.1% | percentage of patients reporting “very much improved” or “much improved” on the CGIC ([2]; Week 6 (70/138)): 50.7% | percentage of patients reporting “very much improved” or “much improved” on the CGIC ([2]; Week 12 (62/91)): 68.2%
